Measured values from US20100048575A1, “NOVEL TETRACYCLIC INHIBITORS OF CYSTEINE PROTEASES, THE PHARMACEUTICAL COMPOSITIONS THEREOF AND THEIR THERAPEUTIC APPLICATIONS” (priority 2006, published 2010).

Assays:
USP7 = target: T1, USP7 (Homo sapiens, UniProt Q93009); assay: USP7 activity assay (Ub-AMC); assay type: biochemical; details: 400 nM Ub-AMC, 152 pM enzyme, 30 min pre-incubation, 60 min at 37° C., sigmoidal fit; read-out: USP7 (inhibition of cysteine protease activity)
T1 construct: His tag (from vector pFastBac-HT) (N); made in house; host or cells: insect cells (Sf9 or High Five), baculovirus
T1 sequence (Q93009 whole entry): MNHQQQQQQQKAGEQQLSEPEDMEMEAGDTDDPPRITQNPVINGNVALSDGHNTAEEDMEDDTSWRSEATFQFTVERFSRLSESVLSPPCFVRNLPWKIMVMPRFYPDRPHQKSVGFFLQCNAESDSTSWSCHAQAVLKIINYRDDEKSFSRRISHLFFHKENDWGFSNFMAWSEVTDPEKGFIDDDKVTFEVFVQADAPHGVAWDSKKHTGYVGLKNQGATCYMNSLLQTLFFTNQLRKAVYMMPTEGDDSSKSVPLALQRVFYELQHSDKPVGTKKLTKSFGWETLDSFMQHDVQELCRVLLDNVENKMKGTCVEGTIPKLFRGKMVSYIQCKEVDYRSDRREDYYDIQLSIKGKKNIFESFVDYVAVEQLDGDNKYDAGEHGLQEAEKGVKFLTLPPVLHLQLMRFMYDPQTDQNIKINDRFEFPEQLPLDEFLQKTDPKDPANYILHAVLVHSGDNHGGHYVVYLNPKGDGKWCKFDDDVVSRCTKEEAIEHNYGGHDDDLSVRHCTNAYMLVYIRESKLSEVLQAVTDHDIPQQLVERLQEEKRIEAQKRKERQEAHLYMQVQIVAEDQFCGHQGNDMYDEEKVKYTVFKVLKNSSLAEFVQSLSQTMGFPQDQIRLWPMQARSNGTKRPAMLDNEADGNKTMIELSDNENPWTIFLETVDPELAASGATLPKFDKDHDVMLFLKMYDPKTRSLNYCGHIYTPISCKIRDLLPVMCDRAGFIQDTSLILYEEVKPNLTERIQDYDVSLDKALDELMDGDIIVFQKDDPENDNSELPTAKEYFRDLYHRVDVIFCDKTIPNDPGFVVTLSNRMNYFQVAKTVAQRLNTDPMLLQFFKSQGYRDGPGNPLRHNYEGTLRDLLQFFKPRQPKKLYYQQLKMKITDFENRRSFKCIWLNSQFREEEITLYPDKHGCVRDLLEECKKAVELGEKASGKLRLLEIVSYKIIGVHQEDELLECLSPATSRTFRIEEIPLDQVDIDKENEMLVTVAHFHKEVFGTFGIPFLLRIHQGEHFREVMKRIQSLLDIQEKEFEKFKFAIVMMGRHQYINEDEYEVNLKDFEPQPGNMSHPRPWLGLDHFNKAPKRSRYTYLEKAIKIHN
Source text: The cDNA encoding USP7 was obtained by PCR amplification from placenta mRNA. USP7 cDNA was subcloned by PCR into a baculovirus expression vector (pFastBac-HT; Invitrogen). A cDNA encoding a mutated USP7 was generated by mutagenic PCR. The corresponding protein encodes a cysteine to alanine substitution at residue 223. The sequences were ascertained by sequencing of the entire open reading frame. Bacmids encoding […] were generated following DH10bac transposition. The corresponding bacmids were transfected into insect cells (Sf9). Viruses were recovered from culture supernatant and amplified twice. Insect cells (Sf9 or High Five; Invitrogen) were infected for 72 hours. Total cell lysates were harvested and lyzed in lysis buffer-(Tris HCl 50 mM pH7.6; 0.75% NP40; 500 mM NaCl; 10% glycerol; 1 mM DTT; 10 mM imidazole; Protease Inhibitor Cocktail; AEBSF 20 μg.ml^−1; Aprotinin 10 μg.ml^−1). Proteins were affinity purified on metal affinity resins (Talon Metal affinity resin; BD Biosciences). Bound materials were extensively washed in wash buffer (50 mM Sodium Phosphate pH7.0; 300 mM NaCl; 10 mM imidazole; 0.5% Triton X-100; 10% glycerol) and eluted from the resin in 250 mM imidazole-containing wash buffer. Proteins were dialyzed in dialysis buffer (Tris HCl pH 7.6 20 mM; NaCl 200 mM; DTT 1 mM; EDTA 1 mM; 10% Glycerol). Proteins purifications were analyzed on 4-12% NuPAGE (Invitrogen).
USP7 was diluted in USP buffer (50 mM Tris HCl; 0.5 mM EDTA; 5 mM DTT; 0.01% Triton X-100; Bovine Serum Albumin 0.05 mg.ml^−1 pH7.6). Compounds stocks (100 mM) were stored at −20° C. in DMSO. Compounds were tested at the following final concentrations: 100 μM; 33.3 μM; 11.1 μM; 3.7 μM; 1.23 μM; 412 nM; 137 nM; 45.7 nM; 15.2 nM; 5 nM.
Reactions were performed as duplicates in Black LJL 96 well plates (HE microplates; Molecular Devices; 20 μl final reaction volume). The substrate concentration for USP7 was 400 nM Ub-AMC (Chem. Biol., 2003, 10, p. 837-846) (Boston Biochem). The concentrations of the enzyme (USP7) in specificity assays was 152 pM. The concentrations were determined in order to perform specificity assays under initial velocities at fixed substrate concentration. Compounds were pre-incubated with enzymes for 30 minutes at 25° C. Reactions were initiated by addition of substrate to the plates containing the enzymes (+/−compounds) diluted in assay buffer. Reactions were incubated for 60 minutes at 37° C. Reactions were stopped by adding acetic acid (100 mM final). Readings were performed on a Pherastar Fluorescent Reader (BMG). λ Emission 380 nm; λ Excitation=460 nm. Data (mean values +/−standard deviation) were analyzed as % of control (no compound) and plotted as percentage versus the Log of the compound concentration using GraphPad (Prism). Data were fitted to a sigmoidal model (variable slope).

[1] = tested on: HCT116 colon cancer cells; assay: HCT116 cell viability and proliferation assay (MTS); assay type: cell-based; details: Homo sapiens, HCT-116, 72 hours, mean of 3 independent experiments, read-out: HCT116 GI50 D3
Protocol: HCT116 colon cancer cells were obtained from ATCC (American Type Culture Collection), and maintained in Mc Coy's 5A medium containing 10% FBS, 3 mM glutamine and 1% penicillin/streptomycin. Cells were incubated at 37° C. in a humidified atmosphere containing 5% CO2.
Cell viability was assayed using the MTS technique in 96-well culture plates (CellTiter 96® Aqueous Non-Radioactive Cell Proliferation Assay, Promega) according to the manufacturer's instructions. MTS (3-(4,5-dimethylthiazol-2-yl)-5-(3-carboxymethoxyphenyl)-2-(4-sulfophenyl)-2H-tetrazolium) is a MTT-derived tetrazolium that is reduced in metabolically active cells into a soluble, cell-permeant formazan. The amount of formazan, detected by its absorbance at 492 nm is proportional to the number of living, metabolically active cells.
10^3 HCT116 cells were seeded per well. 24 hours later, the medium was changed and the cells treated in triplicate with the following concentrations of each compound: 10 μM-3.33 μM-1.11 μM-370 nM-123 nM-41 nM-14 nM and 5 nM. The compounds were diluted in 100% DMSO, whose final concentration on cells was kept at 0.5%.
Cells were incubated with the compounds for 72 hours, and their viability then assayed by the addition of MTS for 2 hours. Absorbance at 492 nm was measured directly from the 96-well culture plates. GI50 (Growth Inhibition 50) concentrations for each compound were calculated using a sigmoidal variable slope fit (Prism 4.0, Graphpad Softwares). Values represent mean of 3 independent experiments.

Compound	IC50 (USP7) [nM]	GI50 [1] [nM]
CON=C1c2ccccc2-c2nn3c(C)nnc3nc21 (mixture of isomers) [5a, 3-Methyl-1,2,3a,4,10-pentaaza-cyclopenta[b]fluoren-9-one O-methyl-oxime]	4000	1400
C=CCON=C1c2ccccc2-c2nn3c(C)nnc3nc21 (mixture of isomers) [5b, 3-Methyl-1,2,3a,4,10-pentaaza-cyclopenta[b]fluoren-9-one O-allyl-oxime]	3140	1640
C=CCON=C1c2ccccc2-c2nn3c(CCCC)nnc3nc21 (mixture of isomers) [5d, 3-Butyl-1,2,3a,4,10-pentaaza-cyclopenta[b]fluoren-9-one O-allyl-oxime]	5350	1010
CCCCCCCCCCON=C1c2ccccc2-c2nn3nnnc3nc21 (mixture of isomers) [8a, 1,2,3,3a, 4,10-Hexaaza-cyclopenta[b]fluoren-9-one O-decyl-oxime]	–	398
COCCON=C1c2ccccc2-c2nn3nnnc3nc21 (mixture of isomers) [8b, 1,2,3,3a, 4,10-Hexaaza-cyclopenta[b]fluoren-9-one O-(2-methoxy-ethyl)-oxime]	470	273
c1ccc(OCCCON=C2c3ccccc3-c3nn4nnnc4nc32)cc1 (mixture of isomers) [8c, 1,2,3,3a,4,10-Hexaaza-cyclopenta[b]fluoren-9-one O-(3-phenoxy-propyl)-oxime]	1780	265
CCc1nnc2nc3c(nn12)-c1ccccc1C3=NOC (mixture of isomers) [10b, 3-Ethyl-1,2,3a,4,10-pentaaza-cyclopenta[b]fluoren-9-one O-methyl-oxime]	4840	3360
CCON=C1c2ccccc2-c2nn3c(CC)nnc3nc21 (mixture of isomers) [10d, 3-Ethyl-1,2,3a,4,10-pentaaza-cyclopenta[b]fluoren-9-one O-ethyl-oxime]	3110	3930
C=CCON=C1c2ccccc2-c2nn3c(CC)nnc3nc21 (mixture of isomers) [10f, 3-Ethyl-1,2,3a,4,10-pentaaza-cyclopenta[b]fluoren-9-one O-allyl-oxime]	3250	2100
CCc1nnc2nc3c(nn12)-c1ccccc1C3=NOCc1ccccc1 (mixture of isomers) [10h, 3-Ethyl-1,2,3a,4,10-pentaaza-cyclopenta[b]fluoren-9-one O-benzyl-oxime]	7280	1910
C=CCON=C1c2ccccc2-c2nn3nnnc3nc21 (mixture of isomers) [compound 6, 1,2,3,3a,4,10-hexaaza-cyclopenta[b]fluoren-9-one O-allyl-oxime]	305	96
ON=C1c2ccccc2-c2nn3nnnc3nc21 (mixture of isomers) [compound 7, 1,2,3,3a,4,10-hexaaza-cyclopenta[b]fluoren-9-one oxime]	657	363
